Literature values, collected in US20120295796A1, “System and Method of Predicting Chemical Interaction and Functionality of Molecules” (VASSA INFORMATICS, priority 2010, published 2012).

Tests used:
EGFR = EGFR (Homo sapiens, UniProt P00533); details: search utilizing the entire binding site
HMG-CoA reductase = biological target: T1, HMG-CoA reductase (Homo sapiens, UniProt P04035); details: hit of Lipitor search, not structurally similar to Lipitor
T1 sequence (P04035 426-888 limits assumed): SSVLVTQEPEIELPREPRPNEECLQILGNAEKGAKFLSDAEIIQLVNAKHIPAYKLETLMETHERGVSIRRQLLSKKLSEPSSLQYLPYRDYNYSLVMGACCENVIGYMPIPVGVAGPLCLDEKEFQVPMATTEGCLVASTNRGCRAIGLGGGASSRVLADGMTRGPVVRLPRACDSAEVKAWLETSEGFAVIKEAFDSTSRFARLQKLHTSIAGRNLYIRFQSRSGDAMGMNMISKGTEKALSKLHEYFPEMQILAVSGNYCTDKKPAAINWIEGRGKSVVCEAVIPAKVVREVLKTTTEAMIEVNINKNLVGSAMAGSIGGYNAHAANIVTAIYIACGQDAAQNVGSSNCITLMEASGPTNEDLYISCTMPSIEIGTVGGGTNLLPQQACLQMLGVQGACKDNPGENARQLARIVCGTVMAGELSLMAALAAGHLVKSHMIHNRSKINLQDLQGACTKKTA

Chain of EGFR (P00533 25-1210): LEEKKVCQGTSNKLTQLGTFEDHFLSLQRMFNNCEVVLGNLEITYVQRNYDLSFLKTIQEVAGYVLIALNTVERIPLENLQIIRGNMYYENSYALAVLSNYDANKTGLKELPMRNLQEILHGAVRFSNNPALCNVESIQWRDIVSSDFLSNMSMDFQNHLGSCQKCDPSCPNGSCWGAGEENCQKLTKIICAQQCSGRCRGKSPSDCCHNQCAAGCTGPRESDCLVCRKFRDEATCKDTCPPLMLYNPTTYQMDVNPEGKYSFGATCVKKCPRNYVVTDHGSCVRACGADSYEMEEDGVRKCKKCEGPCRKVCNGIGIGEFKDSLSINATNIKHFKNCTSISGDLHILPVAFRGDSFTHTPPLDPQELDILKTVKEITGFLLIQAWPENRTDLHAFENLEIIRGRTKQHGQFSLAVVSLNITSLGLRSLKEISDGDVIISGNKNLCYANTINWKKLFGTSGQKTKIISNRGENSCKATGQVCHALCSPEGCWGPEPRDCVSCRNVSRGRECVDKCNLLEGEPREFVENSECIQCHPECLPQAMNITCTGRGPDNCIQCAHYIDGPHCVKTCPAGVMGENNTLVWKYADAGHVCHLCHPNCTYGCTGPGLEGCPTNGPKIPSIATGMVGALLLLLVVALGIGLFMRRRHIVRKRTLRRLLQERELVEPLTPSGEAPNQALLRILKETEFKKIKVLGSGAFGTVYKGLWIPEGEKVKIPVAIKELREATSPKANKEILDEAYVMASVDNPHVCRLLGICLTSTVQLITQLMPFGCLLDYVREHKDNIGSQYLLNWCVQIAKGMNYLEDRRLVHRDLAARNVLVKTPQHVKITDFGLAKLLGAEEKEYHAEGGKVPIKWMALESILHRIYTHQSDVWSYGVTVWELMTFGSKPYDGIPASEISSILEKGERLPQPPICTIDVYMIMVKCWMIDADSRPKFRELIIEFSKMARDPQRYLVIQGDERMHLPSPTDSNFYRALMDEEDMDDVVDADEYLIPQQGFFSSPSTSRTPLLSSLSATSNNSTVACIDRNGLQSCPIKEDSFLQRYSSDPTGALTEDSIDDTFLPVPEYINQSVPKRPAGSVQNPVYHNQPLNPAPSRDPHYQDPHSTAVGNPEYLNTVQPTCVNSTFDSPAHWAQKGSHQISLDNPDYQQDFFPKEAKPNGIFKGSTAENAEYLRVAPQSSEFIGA

Structure (SMILES)	binder status at the Tarceva binding site (ADP binding site) (EGFR)	known binding to HMG-CoA reductase (search result category Known Binders) (HMG-CoA reductase)
Nc1ncnc2c1ncn2[C@@H]1O[C@H](COP(=O)(O)OP(=O)(O)O)[C@@H](O)[C@H]1O [ADP]	already known or suspected as binders	–
Nc1ncnc2c1ncn2[C@@H]1O[C@H](COP(=O)(O)O)[C@@H](O)[C@H]1O [AMP]	already known or suspected as binders	–
Nc1ncnc2c1ncn2[C@@H]1O[C@H](COP(=O)(O)OP(=O)(O)OP(=O)(O)O)[C@@H](O)[C@H]1O [ATP]	already known or suspected as binders	–
CC(C)(COP(=O)(O)OP(=O)(O)OC[C@H]1O[C@@H](n2cnc3c(N)ncnc32)[C@H](O)[C@@H]1OP(=O)(O)O)[C@@H](O)C(=O)NCCC(=O)NCCS [Coenzyme A]	–	binds HinG-CoA reductase
